Laboratory results published in patent US8476264B2, “N-(3-(2-amino-6,6-difluoro-4,4A,5,6,7,7A-hexahydro-cyclopenta[E][1,3]oxazin-4-yl)-phenylamides as BACE1 inhibitors” (Hoffmann-La Roche Inc., priority 2011, dated 2013).

biological target: T1, hERG channel (Homo sapiens, UniProt Q12809); test: PatchXpress hERG inhibition assay; assay type: cell-based; details: @ 1 μM; CHO cells transfected with hERG, automated patch clamp
T1 construct: expressed in transfected cells; host or cells: CHO cells
Method: PatchXpress hERG Inhibition Assay
The detailed method to quantify hERG channel inhibition by the automated patch clamp system PatchXpress® 7000A (Molecular Devices, Sunnyvale, Calif.) has been described by Guo et al. (J of Pharmacol & Tox Methods, (2005) 52(1):123-35). In brief, Chinese hamster ovary (CHO) cells transfected with the human ether-a-go-go-related gene (hERG) was cultured in Ex-cell 302 media supplemented with 10% fetal bovine serum, 2 mM glutamine and 0.25 mg/ml geneticin and maintained in a CO2 incubator at 37° C. For patch clamp electrophysiology, the external buffer contained (in mM): 150 NaCl, 10 Hepes, 4 KCl, 1.2 CaCl2, 1 MgCl2, pH 7.4 adjusted with […] and the internal recording solution contained (in mM): 140 KCl, 6 EGTA, 5 Hepes, MgCl2, 5 ATP-Na2, pH 7.2 adjusted with KOH. Once the cell was loaded in the recording chamber and formed a giga ohm seal with the planar glass electrodes (Sealchip™), a whole-cell configuration was achieved by rupturing the cell membrane. The membrane potential was then clamped at −80 mV and the hERG channel activated by a 1-second depolarizing pulse delivered at 0.1 Hz, the hERG current was measured during the 500 ms-repolarizing pulse to −40 mV. After an acceptable hERG current recording was obtained, the cell was first exposed to 0.3% DMSO as the vehicle control, followed by the test article in three ascending, full-log interval concentrations and finally E-4031 at 1 μM (as the positive control) to block the hERG current completely. […] The inhibition of hERG current at each concentration was normalized to that recorded in the vehicle control, and fitted with Hill equation to calculate IC20 and/or IC50.

T1 sequence (Q12809 whole entry): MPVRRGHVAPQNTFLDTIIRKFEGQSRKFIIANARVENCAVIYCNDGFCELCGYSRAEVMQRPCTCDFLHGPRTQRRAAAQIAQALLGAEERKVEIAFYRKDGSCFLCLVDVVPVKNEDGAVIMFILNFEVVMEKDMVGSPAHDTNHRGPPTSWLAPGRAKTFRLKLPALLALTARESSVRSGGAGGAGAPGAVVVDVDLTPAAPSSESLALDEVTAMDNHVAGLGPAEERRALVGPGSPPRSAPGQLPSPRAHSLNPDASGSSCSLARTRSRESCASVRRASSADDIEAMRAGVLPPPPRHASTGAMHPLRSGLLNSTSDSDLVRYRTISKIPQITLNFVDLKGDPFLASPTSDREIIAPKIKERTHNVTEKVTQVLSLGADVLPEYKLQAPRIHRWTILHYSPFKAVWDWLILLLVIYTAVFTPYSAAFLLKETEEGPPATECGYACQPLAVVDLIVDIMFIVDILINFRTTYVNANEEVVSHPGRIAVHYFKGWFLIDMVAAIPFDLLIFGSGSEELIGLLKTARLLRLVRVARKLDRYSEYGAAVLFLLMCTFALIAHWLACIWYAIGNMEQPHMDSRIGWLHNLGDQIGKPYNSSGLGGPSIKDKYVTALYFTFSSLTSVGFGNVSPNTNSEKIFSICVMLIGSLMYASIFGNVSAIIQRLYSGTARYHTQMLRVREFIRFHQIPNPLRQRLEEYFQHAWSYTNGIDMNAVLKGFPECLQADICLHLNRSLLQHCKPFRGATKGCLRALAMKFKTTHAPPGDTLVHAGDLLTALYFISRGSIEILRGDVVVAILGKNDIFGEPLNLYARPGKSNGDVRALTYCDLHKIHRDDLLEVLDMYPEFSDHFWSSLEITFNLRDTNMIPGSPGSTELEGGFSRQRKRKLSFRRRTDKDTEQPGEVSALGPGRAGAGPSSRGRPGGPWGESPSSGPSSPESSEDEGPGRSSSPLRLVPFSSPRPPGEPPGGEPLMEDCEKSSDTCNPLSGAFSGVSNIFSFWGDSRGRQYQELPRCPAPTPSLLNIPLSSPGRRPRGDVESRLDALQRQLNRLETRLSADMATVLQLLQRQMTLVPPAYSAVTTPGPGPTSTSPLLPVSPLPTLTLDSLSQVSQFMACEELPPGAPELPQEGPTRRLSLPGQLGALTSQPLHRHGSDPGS

| SMILES | hERG inhibition |
| --- | --- |
| N#Cc1ccc(C(=O)Nc2ccc(F)c([C@@]3(CF)N=C(N)O[C@@H]4CC(F)(F)C[C@@H]43)c2)nc1 [Example 3, 5-Cyano-pyridine-2-carboxylic acid [(S)-3-((1R,2R)-2-amino-6,6-difluoro-4-fluoromethyl-4,4a,5,6,7,7a-hexahydro-cyclopenta[e][1,3]oxazin-4-yl)-4-fluoro-phenyl]-amide] | B (less than 15% inhibition @ 1 μM) |
| NC1=N[C@](CF)(c2cc(NC(=O)c3cnc(C(F)F)cn3)ccc2F)[C@H]2CC(F)(F)C[C@H]2O1 [Example 24, 5-Difluoromethyl-pyrazine-2-carboxylic acid [(S)-3-((1R,2R)-2-amino-6,6-difluoro-4-fluoromethyl-4,4a,5,6,7,7a-hexahydro-cyclopenta[e][1,3]oxazin-4-yl)-4-fluoro-phenyl]-amide] | B (less than 15% inhibition @ 1 μM) |
| NC1=N[C@](CF)(c2cc(NC(=O)c3ccc(F)cn3)ccc2F)[C@H]2CC(F)(F)C[C@H]2O1 [Example 7, 5-Fluoro-pyridine-2-carboxylic acid [(S)-3-((1R,2R)-2-amino-6,6-difluoro-4-fluoromethyl-4,4a,5,6,7,7a-hexahydro-cyclopenta[e][1,3]oxazin-4-yl)-4-fluoro-phenyl]-amide] | A (less than 20% inhibition @ 1 μM) |
| COc1cnc(C(=O)Nc2ccc(F)c([C@@]3(C(F)F)N=C(N)O[C@@H]4CC(F)(F)C[C@@H]43)c2)cn1 [Example 42, 5-Methoxy-pyrazine-2-carboxylic acid [(S)-3-((1R,2R)-2-amino-4-difluoromethyl-6,6-difluoro-4,4a,5,6,7,7a-hexahydro-cyclopenta[e][1,3]oxazin-4-yl)-4-fluoro-phenyl]-amide] | B (less than 15% inhibition @ 1 μM) |
| N#Cc1ccc(C(=O)Nc2ccc(F)c([C@@]3(C(F)F)N=C(N)O[C@@H]4CC(F)(F)C[C@@H]43)c2)nc1 [Example 36, 5-Cyano-pyridine-2-carboxylic acid [(S)-3-((1R,2R)-2-amino-4-difluoromethyl-6,6-difluoro-4,4a,5,6,7,7a-hexahydro-cyclopenta[e][1,3]oxazin-4-yl)-4-fluoro-phenyl]-amide] | B (less than 15% inhibition @ 1 μM) |
